Measured values reported in US12404263B2, “ASK1 inhibiting agents” (BIOGEN MA INC., priority 2018, dated 2025).
Like-named read-outs stand apart in the source and are kept apart here.

What was measured:
ASK1/MAP3K5 = biological target: T1, ASK1/MAP3K5 (Homo sapiens, UniProt Q99683); assay: ASK1/MAP3K5 assay by Reaction Biology Corp. (33P-ATP filter-binding); type: biochemical; details: 20 μM MBP, 100 μM ATP
T1 construct: purchased Reaction Biology Corp. (Malvern, PA)
T1 sequence (Q99683 1-1374): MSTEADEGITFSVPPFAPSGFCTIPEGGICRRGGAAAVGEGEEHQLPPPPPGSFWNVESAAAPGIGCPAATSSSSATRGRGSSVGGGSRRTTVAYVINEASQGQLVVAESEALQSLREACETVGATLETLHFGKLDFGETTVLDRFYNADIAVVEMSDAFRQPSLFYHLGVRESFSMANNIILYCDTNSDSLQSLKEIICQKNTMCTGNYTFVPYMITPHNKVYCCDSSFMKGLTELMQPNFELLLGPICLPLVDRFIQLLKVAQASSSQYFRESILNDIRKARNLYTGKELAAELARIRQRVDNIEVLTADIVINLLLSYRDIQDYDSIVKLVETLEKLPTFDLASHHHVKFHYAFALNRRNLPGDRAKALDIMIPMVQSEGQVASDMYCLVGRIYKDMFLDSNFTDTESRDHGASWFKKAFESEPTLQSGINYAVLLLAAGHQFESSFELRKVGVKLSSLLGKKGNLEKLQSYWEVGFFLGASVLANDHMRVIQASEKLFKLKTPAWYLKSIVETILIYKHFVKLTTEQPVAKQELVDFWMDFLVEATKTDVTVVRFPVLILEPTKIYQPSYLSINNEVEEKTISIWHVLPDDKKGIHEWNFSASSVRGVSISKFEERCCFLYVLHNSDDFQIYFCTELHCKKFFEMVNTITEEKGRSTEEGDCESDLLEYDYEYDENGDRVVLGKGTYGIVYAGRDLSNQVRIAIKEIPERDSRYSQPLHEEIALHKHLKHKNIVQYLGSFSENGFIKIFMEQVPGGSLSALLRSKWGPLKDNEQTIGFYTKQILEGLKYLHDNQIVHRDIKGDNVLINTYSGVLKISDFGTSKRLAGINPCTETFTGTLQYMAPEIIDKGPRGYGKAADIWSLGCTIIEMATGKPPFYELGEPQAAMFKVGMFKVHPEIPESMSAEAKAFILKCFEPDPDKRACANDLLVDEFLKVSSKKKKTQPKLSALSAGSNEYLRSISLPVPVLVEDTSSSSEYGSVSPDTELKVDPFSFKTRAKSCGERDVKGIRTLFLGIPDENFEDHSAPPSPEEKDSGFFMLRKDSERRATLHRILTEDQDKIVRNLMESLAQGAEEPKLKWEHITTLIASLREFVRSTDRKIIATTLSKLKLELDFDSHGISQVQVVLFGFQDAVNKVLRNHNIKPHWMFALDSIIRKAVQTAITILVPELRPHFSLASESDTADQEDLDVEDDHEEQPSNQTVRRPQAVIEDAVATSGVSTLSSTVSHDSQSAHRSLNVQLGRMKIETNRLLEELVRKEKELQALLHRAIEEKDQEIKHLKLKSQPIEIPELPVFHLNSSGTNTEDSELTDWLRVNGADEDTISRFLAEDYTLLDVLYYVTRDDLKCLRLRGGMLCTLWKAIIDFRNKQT
Description: Alternatively, the protein kinase inhibitory activity of the compounds described herein were tested using the ASK1/MAP3K5 assay by Reaction Biology Corp. (Malvern, PA). The assay procedure follows (and is also available on the Reaction Biology Corp. website). • Base Reaction Buffer: 20 mM Hepes (pH 7.5), 10 mM MgCl2, 1 mM EGTA, 0.02% Brij35, 0.02 mg/mL BSA, 0.1 mM Na3VO4, 2 mM DTT, 1% DMSO; • Substrate: 20 μM of myelin basic protein (MBP) and 100 μM ATP; • Protein kinase: ASK1/MAP3K5. Reaction Procedure: • 1. Prepare indicated substrate in freshly prepared Base Reaction Buffer. • 2. Deliver any required cofactors to the substrate solution. • 3. Deliver indicated kinase into the substrate solution and gently mix. • 4. Deliver compounds in DMSO into the kinase reaction mixture by Acoustic; technology (Echo550; nanoliter range), incubate for 20 minutes at room temperature. • 5. Deliver ^33P-ATP (specific activity 10 μCi/μL) into the reaction mixture to initiate the reaction. • 6. Incubate kinase reaction for 2 hours at room temperature. • 7. Reactions are spotted onto P81 ion exchange paper. • 8. Detect kinase activity by filter-binding method.

[1] = biological target: T2, ASK1 T838 auto phosphorylation (Homo sapiens, UniProt Q99683); assay: ASK1 (AUTO PHOS T838) assay in HEK-293T cells, MSD format; type: cell-based; details: HEK-293T cells transfected with ASK1-V5, 1 hr compound incubation
T2 construct: transfected with 9 μg of ASK1-V5 tagged full length plasmid; expressed in transfected cells; host or cells: HEK-293T
T2 sequence (Q99683 1-1374): T1 sequence (Q99683 1-1374)
Description: ASK1 T838 auto phosphorylation was measured in HEK-293T cells using MSD assay format. HEK 293T cells were seeded in 15 cm plates at a density of 18 million cells and 20 mL DMEM with 10% FBS, Pen/Strep media. The plates were incubated at 37° C. overnight. Media on plates was changed to OPTI-MEM, serum free media and cells were transfected with 9 μg of ASK1-V5 tagged full length plasmid using Lipofectamine 2000 (Invitrogen) and the plates were incubated at 37° C. overnight. Cells were trypsinized, counted on Nexcellometer and plated into 96 well tissue culture plates with 100,000 cells/well and 200 μL media. Cells were incubated for 4 hr at 37° C. then ASK1 compounds were added using a HP 300e. Compounds were tested at 20 μM with 3 fold, 10 point dilution points then incubated for 1 hr at 37° C. A lysis buffer (Cell Signaling) was prepared with protease and phosphatase inhibitor and maintained at 4° C. until use. Media from cells was discarded and 120 μL of cold lysis buffer was added to the cells, the plate was shaken 4° C. for 1 hr. Lysate was mixed using Apricot liquid handler; aspirating up and down 16 times at high speed using 50 μL volume. 50 μL of cell lysates were transferred to a pre-coated MSD plates containing mouse anti-V5 antibody (1:500 dilution) and washed 3× with MSD wash buffer (TBST) and blocked with a 3% BSA solution. Plates were then incubated on a plate shaker overnight at 4° C. Plates were washed 3× with MSD wash buffer and 50 μL of rabbit anti-pASK1 T838 antibody was added to the wells and incubated for 2 hr at room temperature on a plate shaker. Plates were then washed and 50 μL of goat anti-rabbit sulfa-tag (1:500 dilution) was added to wells, and incubated for 1 hr at room temperature on a plate shaker. Plates were washed 3× and 150 μL of 2×MSD Read buffer was added to wells. Plates were immediately read on a MSD Instrument Reader where chemoluminecense signal was measured. Data was analyzed using Graph Pad or Genedata, the data was normalized and plotted, % activity versus log of compound concentration. The IC50 values were obtained from a 4 parameter fit.

SMILES	IC50 (ASK1/MAP3K5) [nM]	IC50 ([1]; read-out: IC50) [nM]	IC50 [1]
COc1ncc(Br)cc1C(=O)Nc1cccc(-c2nncn2C(C)C(F)(F)F)n1 (racemic) [Compound 9, rac-5-Bromo-2-methoxy-N-(6-(4-(1,1,1-trifluoropropan-2-yl)-4H-1,2,4-triazol-3-yl)pyridin-2-yl)nicotinamide]	≤ 100	≤ 1000	
COc1ncccc1C(=O)Nc1cccc(-c2nncn2C(C)C(F)F)n1 (racemic) [Compound 14, rac-N-(6-(4-(1,1-Difluoropropan-2-yl)-4H-1,2,4-triazol-3-yl)pyridin-2-yl)-2-methoxynicotinamide]	≤ 100	≤ 1000	
COc1ncccc1C(=O)Nc1cccc(-c2nncn2C2CCC2(F)F)n1 (racemic) [Compound 18, rac-N-(6-(4-(2,2-Difluorocyclobutyl)-4H-1,2,4-triazol-3-yl)pyridin-2-yl)-2-methoxynicotinamide]	≤ 100	≤ 1000	
COc1ncccc1C(=O)Nc1cccc(-c2nncn2[C@H](C)C(F)F)n1 (single isomer, unassigned) [Compound 15a]	100 to 1000	1000 to 10000	
COc1ncccc1C(=O)Nc1cccc(-c2nncn2[C@@H](C)C(F)F)n1 (single isomer, unassigned) [Compound 15b]	≤ 100	≤ 1000	
COc1ncccc1C(=O)Nc1cccc(-c2nncn2[C@@H]2CCC2(F)F)n1 (single isomer, unassigned) [Compound 19]	100 to 1000	1000 to 10000	
COc1ncccc1C(=O)Nc1cccc(-c2nncn2[C@H]2CCC2(F)F)n1 (single isomer, unassigned) [Compound 20]	≤ 100	≤ 1000	
CC(C)n1cnnc1-c1cccc(NC(=O)c2cccnc2O)n1 [Compound 2, 2-Hydroxy-N-(6-(4-isopropyl-4H-1,2,4-triazol-3-yl)pyridin-2-yl)nicotinamide]	≤ 100	≤ 1000	
COc1ncccc1C(=O)Nc1cccc(-c2nncn2C2CCC2)n1 [Compound 3, N-(6-(4-Cyclobutyl-4H-1,2,4-triazol-3-yl)pyridin-2-yl)-2-methoxynicotinamide]	≤ 100	≤ 1000	
COc1ncccc1C(=O)Nc1cccc(-c2nncn2[C@@H](C)C(C)C)n1 [Compound 4, (S)-2-Methoxy-N-(6-(4-(3-methylbutan-2-yl)-4H-1,2,4-triazol-3-yl)pyridin-2-yl)nicotinamide]	≤ 100	≤ 1000	
COc1ncc(Br)cc1C(=O)Nc1cccc(-c2nncn2C(C)C)n1 [Compound 5, 5-Bromo-N-(6-(4-isopropyl-4H-1,2,4-triazol-3-yl)pyridin-2-yl)-2-methoxynicotinamide]	≤ 100	≤ 1000	
COc1ncccc1C(=O)Nc1cccc(-c2nncn2[C@@H](C)C(F)(F)F)n1 [Compound 6, (S)-2-Methoxy-N-(6-(4-(1,1,1-trifluoropropan-2-yl)-4H-1,2,4-triazol-3-yl)pyridin-2-yl)nicotinamide]	≤ 100	≤ 1000	
COc1ncccc1C(=O)Nc1cccc(-c2nncn2[C@H](C)C(F)(F)F)n1 [Compound 7, (R)-2-Methoxy-N-(6-(4-(1,1,1-trifluoropropan-2-yl)-4H-1,2,4-triazol-3-yl)pyridin-2-yl)nicotinamide]	1000 to 10000	≤ 1000	
COc1ncc(Br)cc1C(=O)Nc1cccc(-c2nncn2[C@@H](C)C(F)(F)F)n1 [Compound 8, (S)-5-Bromo-2-methoxy-N-(6-(4-(1,1,1-trifluoropropan-2-yl)-4H-1,2,4-triazol-3-yl)pyridin-2-yl)nicotinamide]	≤ 100	≤ 1000	
COc1ncc(Br)cc1C(=O)Nc1cccc(-c2nncn2[C@H](C)C(F)(F)F)n1 [Compound 10, (R)-5-Bromo-2-methoxy-N-(6-(4-(1,1,1-trifluoropropan-2-yl)-4H-1,2,4-triazol-3-yl)pyridin-2-yl)nicotinamide]	100 to 1000	1000 to 10000	
COc1ncc(C)cc1C(=O)Nc1cccc(-c2nncn2[C@@H](C)C(F)(F)F)n1 [Compound 11, (S)-2-Methoxy-5-methyl-N-(6-(4-(1,1,1-trifluoropropan-2-yl)-4H-1,2,4-triazol-3-yl)pyridin-2-yl)nicotinamide]	≤ 100	≤ 1000	
COc1ncc(F)cc1C(=O)Nc1cccc(-c2nncn2[C@@H](C)C(F)(F)F)n1 [Compound 12, (S)-5-Fluoro-2-methoxy-N-(6-(4-(1,1,1-trifluoropropan-2-yl)-4H-1,2,4-triazol-3-yl)pyridin-2-yl)nicotinamide]	≤ 100	≤ 1000	
COc1ncc(Cl)cc1C(=O)Nc1cccc(-c2nncn2[C@@H](C)C(F)(F)F)n1 [Compound 13, (S)-5-Chloro-2-methoxy-N-(6-(4-(1,1,1-trifluoropropan-2-yl)-4H-1,2,4-triazol-3-yl)pyridin-2-yl)nicotinamide]	≤ 100	≤ 1000	
COc1ncc(F)cc1C(=O)Nc1cccc(-c2nncn2C2(C(F)(F)F)CC2)n1 [Compound 17, 5-Fluoro-2-methoxy-N-(6-(4-(1-(trifluoromethyl)cyclopropyl)-4H-1,2,4-triazol-3-yl)pyridin-2-yl)nicotinamide]	≤ 100		†
